Laboratory results taken from US11008297B2, “Bio-based, multi-aromatic compounds, and methods of making and using same” (ROWAN UNIVERSITY, priority 2017, dated 2021).

Experiment: UV-VIS spectroscopy during titration with sodium hydroxide (pH dependence of absorbance)
Format: physicochemical
Conditions: 0.25 g in 100 mL deionized water, titrated with 0.1 M sodium hydroxide, UV-VIS at every 0.5 pH
Experimental: FIG. 8 comprises a graph illustrating maximum absorbance as a function of pH for a compound of the invention.
Triguaiacol (0.25 g, Example 4) was dissolved in 100 mL of deionized water. The mixture was titrated with 0.1 M sodium hydroxide solution. At every 0.5 pH, UV-VIS spectroscopy was performed on a portion of the mixture. The wavelength in the absorbance spectrum where the absorbance is at a maximum was measured.

wavelength in the absorbance spectrum where the absorbance is at a maximum: decrease with increasing pH
Structure (SMILES): COc1cc(C(c2ccc(O)c(OC)c2)c2ccc(O)c(OC)c2)ccc1O [Triguaiacol, 4,4′,4″-methanetriyltris(2-methoxyphenol)]
